Data reported in the RepoRT retention time repository (doi:10.1016/j.aca.2011.12.065).
Structures can show the parent of a compound that is named as a salt.

Key:
[1] = RP, Waters ACQUITY UPLC HSS T3, 100 × 2.1 mm, 1.8 µm; A: water + 0.1% formic acid, pH 3; B: 30% methanol + 70% acetonitrile + 0.1% formic acid, pH 3; gradient (min/%B) 0.0/5 1.0/8 2.0/15 3.0/40 4.0/70 4.5/100 5.0/100 6.4/100 6.6/5.0 6.8/5.0 7.0/5.0; conditions: stereoisomer not certain
[2] = RP, Waters ACQUITY UPLC BEH C18, 100 × 2.1 mm, 1.7 µm; A: water + 0.1% formic acid, pH 3; B: 80% acetonitrile + 20% acetone + 0.1% formic acid, pH 3; gradient (min/%B) 0/0 6/100; conditions: stereoisomer not certain

Question: Which LC retention time [1] does the source give for Nc1ncnc2nc[nH]c12 [Adenine] here?
Answer: The LC retention time was 0.538 min.

Question: And the LC retention time [2]?
Answer: Its LC retention time is 0.685 min.

Question: Which results are given for Nc1ncnc2c1ncn2C1OC(CO)C(O)C1O (centres undefined) [Adenosine]?
Answer: LC retention time [1]: 0.857 min; LC retention time [2]: 1.34 min

Question: Which results are given for O=C(O)CCCCC(=O)O [Adipic acid]?
Answer: LC retention time [1]: 2.33 min; LC retention time [2]: 1.5 min

Question: Which results are given for O=C(O)CCCCCCCC(=O)O [Azelaic acid]?
Answer: LC retention time [1]: 3.63 min; LC retention time [2]: 2.26 min

Question: Which results are given for CC(NCCCCC(N)C(=O)O)C(=O)O (centres undefined) [CEL]?
Answer: LC retention time [1]: 0.459 min; LC retention time [2]: 0.571 min

Question: What does the source list for Cn1c(=O)c2c(ncn2C)n(C)c1=O [Caffeine]?
Answer: LC retention time [1]: 3.13 min; LC retention time [2]: 1.65 min

Question: For CCCc1oc(CCC(=O)O)c(C(=O)O)c1C [cmpf], which LC retention time [1] is on record?
Answer: The LC retention time was 4.08 min.

Question: With CC(C)C1NC(=O)C2CCCN2C1=O (centres undefined) [cyclo-(pro-val)] as the molecule, how does the LC retention time [1] read?
Answer: Its LC retention time is 3.1 min.

Question: For OCC(O)C(O)C(O)C(O)CO (stereo not drawn) [d(-)-mannitol], which LC retention time [1] is on record?
Answer: The LC retention time was 0.483 min.

Question: Which LC retention time [1] does the source give for O=C(O)C(O)c1ccc(O)c(O)c1 (centres undefined) [dihydroxymandelic acid] here?
Answer: The LC retention time was 0.829 min.

Question: Which LC retention time [1] does the source give for NCCc1ccc(O)c(O)c1 [dopamine] here?
Answer: The LC retention time was 0.712 min.

Question: With CNCC(O)c1ccc(O)c(O)c1 (centres undefined) [epinephrine] as the molecule, how does the LC retention time [1] read?
Answer: Its LC retention time is 0.564 min.

Question: Which LC retention time [1] does the source give for NCCCC(=O)O [gamma-aminobutyric acid] here?
Answer: Its LC retention time is 0.491 min.

Question: For CC(CCC(=O)NCC(=O)O)C1CCC2C3C(O)CC4CC(OC5OC(C(=O)O)C(O)C(O)C5O)CCC4(C)C3CCC12C (centres undefined) [glycochenodeoxycholic acid 3-glucuronide], which LC retention time [1] is on record?
Answer: Its LC retention time is 4.34 min.

Question: With O=C(O)C1OC(Oc2ccc(O)cc2)C(O)C(O)C1O (centres undefined) [hydroquinone-glucuronide] as the molecule, how does the LC retention time [1] read?
Answer: The LC retention time was 0.91 min.

Question: With CS(=O)CCCN=C=S (centres undefined) [iberin] as the molecule, how does the LC retention time [1] read?
Answer: The LC retention time was 3.24 min.

Question: Which LC retention time [1] does the source give for O=C(Cc1c[nH]c2ccccc12)OC1OC(C(=O)O)C(O)C(O)C1O (centres undefined) [indole-3-acetic acid-glucuronide] here?
Answer: The LC retention time was 3.46 min.

Question: With O=C(O)CNC(=O)C=Cc1c[nH]c2ccccc12 [indole-3-acryloylglycine] as the molecule, how does the LC retention time [1] read?
Answer: Its LC retention time is 3.56 min.

Question: For O=C(OC1OC(C(=O)O)C(O)C(O)C1O)c1c[nH]c2ccccc12 (centres undefined) [indole-3-carboxylic acid glucuronide], which LC retention time [1] is on record?
Answer: Its LC retention time is 3.42 min.

Question: With CC(C)CC(=O)NCC(=O)O [isovalerylglycine] as the molecule, how does the LC retention time [1] read?
Answer: Its LC retention time is 2.74 min.

Question: For CC12C=Cc3occc3C1CCC13CC(CCC12)C(O)(CO)C3 (centres undefined) [kahweol], which LC retention time [1] is on record?
Answer: Its LC retention time is 3.81 min.

Question: Which LC retention time [1] does the source give for c1coc(CNc2ncnc3nc[nH]c23)c1 [kinetin] here?
Answer: Its LC retention time is 3.03 min.

Question: Which LC retention time [1] does the source give for C[N+](C)(C)CC(O)CC(=O)[O-] (stereo not drawn) [l-carnitine inner salt] here?
Answer: Its LC retention time is 0.457 min.

Question: With O=c1cc(-c2ccc(O)c(O)c2)oc2cc(O)cc(O)c12 [luteolin] as the molecule, how does the LC retention time [1] read?
Answer: Its LC retention time is 3.75 min.

Question: For C[NH+]1CC(O)CC1C(=O)[O-] (centres undefined) [n-methyl-4-hydroxyproline], which LC retention time [1] is on record?
Answer: The LC retention time was 0.498 min.

Question: Which LC retention time [1] does the source give for CCCCCCCC(=O)OC1OC(C(=O)O)C(O)C(O)C1O (centres undefined) [octanoic acid glucuronide] here?
Answer: Its LC retention time is 3.92 min.

Question: For CCCCCCCCC=CCCCCCCCC(N)=O [oleamide], which LC retention time [1] is on record?
Answer: The LC retention time was 4.81 min.

Question: Which LC retention time [1] does the source give for CCC=CCC=CCC=CCC=CCC=CCC=CCCC(=O)OC(COC(=O)CCCCCCCCCCCCCCCCC)COP(=O)([O-])OCC[N+](C)(C)C (centres undefined) [pc(18:0/22:6)] here?
Answer: Its LC retention time is 5.51 min.

Question: For C=C(C)C1CC=C(C(=O)O)CC1 (centres undefined) [perillic acid], which LC retention time [1] is on record?
Answer: The LC retention time was 3.81 min.

Question: For O=C(O)CNC(=O)Cc1ccccc1 [phenylacetylamino-acetic acid], which LC retention time [1] is on record?
Answer: The LC retention time was 3.38 min.

Question: With O=C(O)C1CCCCN1 (centres undefined) [pipecolinic acid] as the molecule, how does the LC retention time [1] read?
Answer: The LC retention time was 0.62 min.

Question: With C[N+]1(C)CCCC1C(=O)[O-] (centres undefined) [proline betaine] as the molecule, how does the LC retention time [1] read?
Answer: The LC retention time was 0.543 min.

Question: With O=C(O)c1ccc[nH]1 [pyrrole-2-carboxylic acid] as the molecule, how does the LC retention time [1] read?
Answer: The LC retention time was 2.61 min.

Question: Which LC retention time [1] does the source give for O=c1c(O)c(-c2ccc(O)c(O)c2)oc2cc(O)cc(O)c12 [quercetin] here?
Answer: The LC retention time was 3.74 min.

Question: Which LC retention time [1] does the source give for CC(=O)NC(CSC(=S)NCCCCS(C)=O)C(=O)O (centres undefined) [sulforaphane-n-acetylcysteine] here?
Answer: Its LC retention time is 3.24 min.

Question: With CC12CCC(=O)C=C1CCC1C2CCC2(C)C(O)CCC12 (centres undefined) [testosterone] as the molecule, how does the LC retention time [1] read?
Answer: Its LC retention time is 4.32 min.

Question: Which LC retention time [1] does the source give for O=C(O)/C=C/c1cccc(O)c1 [trans-3-hydroxycinnamic acid] here?
Answer: The LC retention time was 3.53 min.

Question: With CC(C)C(N)C(=O)O (centres undefined) [valine] as the molecule, how does the LC retention time [1] read?
Answer: Its LC retention time is 0.546 min.
